In series [1] the test system is human cytomegalovirus (HCMV), strain AD-169. The experiment in a line: Antiviral test (plaque reduction) versus HCMV, strain AD-169, in MRC-5 cells. In kind it is cell-based. The settings on record: for Activity in initial screening against HCMV in vitro: in words; for Number of Plaques: average of two wells; for inhibition at 0.0032 µg/mL: Human betaherpesvirus 5, AD169, MRC5, 0.0032 μg/ml; for inhibition at 0.01 µg/mL: Human betaherpesvirus 5, AD169, MRC5, 0.01 μg/ml; for inhibition at 0.032 µg/mL: Human betaherpesvirus 5, AD169, MRC5, 0.032 μg/ml; for inhibition at 0.1 µg/mL: Human betaherpesvirus 5, AD169, MRC5, 0.1 μg/ml; for inhibition at 0.32 µg/mL: Human betaherpesvirus 5, AD169, MRC5, 0.32 μg/ml; for inhibition at 1 µg/mL: Human betaherpesvirus 5, AD169, MRC5, 1.0 μg/ml; for inhibition at 10 µg/mL: Human betaherpesvirus 5, AD169, MRC5, 10 μg/ml.

For series [2], the system named is HCMV, strain C8805-37 (DHPG-resistant). The experiment in a line: microbe, parasite or virus in culture. Type of series: cell-based, human cytomegalovirus. The settings on record: for inhibition at 0.01 µg/mL / inhibition at 0.032 µg/mL / inhibition at 0.1 µg/mL / inhibition at 0.32 µg/mL / inhibition at 1 µg/mL / inhibition at 3.2 µg/mL: Human betaherpesvirus 5, MRC5, read-out: Percent Inhibition Compared to Controls; for inhibition at 10 µg/mL: Human betaherpesvirus 5, MRC5, 96 h, read-out: Percent Inhibition Compared to Controls.

In another series the test system is HCMV, strain AD-169. Kind of series: Virucidal test versus HCMV, strain AD-169. Type of series: cell-based, human cytomegalovirus. To be noted: in words.
Series [3] deals with human cytomegalovirus (HCMV) strain AD-169. The experiment in a line: Antiviral effect of different exposure times, HCMV strain AD-169 (plaque reduction). In kind it is cell-based.
In series [4] the test system is murine cytomegalovirus, strain Smith MSGV. Kind of series: Antiviral test (plaque reduction) versus murine cytomegalovirus, strain Smith MSGV, in 3T3 cells. Type of series: cell-based. To be noted: Example 8.
The test system of a further series is 3T3 cells. To be noted: mouse.
[5] abbreviates: 10 μg/ml, Example 2, ethanol stock (protohypericin in DMSO), cells exposed 6 or more days.
The mark [6] stands for this setting: statement in words on the plaque reduction results.
[7] abbreviates: Example 3, cells exposed 4 days.
The mark [8] stands for this setting: Table 9 summary, two values = two experiments.
Setting [9] is: Table 10 summary, DHPG resistant HCMV test.
The mark [10] stands for this setting: 0.0032 μg/ml, Example 1, DMSO stock.
The mark [11] stands for this setting: 0.1 μg/ml, Example 1, DMSO stock.
Setting [12] is: 0.32 μg/ml, Example 1, DMSO stock.
[13] abbreviates: 1.0 μg/ml, Example 1, DMSO stock.
[14] abbreviates: 3.2 μg/ml, Example 1, DMSO stock.
The mark [15] stands for this setting: 10 μg/ml, Example 1, DMSO stock.
[16] abbreviates: Example 2, read-out: Percent Inhibition of Plaque Numbers (Compared to Virus Controls).
[17] abbreviates: Example 1, DMSO stock, read-out: % Inhibition.
[18] abbreviates: Human betaherpesvirus 5, AD169, MRC5, 3.2 μg/ml, Example 1, DMSO stock, read-out: % Inhibition.
Where [19] appears, read: 0.32 μg/ml (second line so printed, r16, below 0.1).
The mark [20] stands for this setting: Human betaherpesvirus 5, AD169, MRC5, read-out: % Reduction.

Several values for one entry are separate records, joined by “and”; a condition that tells them apart may be missing. Equal entries are not always repeated. Entries after “also recorded” stand apart in the source; their conditions may differ. Where two headings read alike, the source gives them in different places. Where only a bound is given, the exact number is not on record here.

Consider `Cc1cc(O)c2c(c1)C(C1c3cc(C)cc(O)c3C(=O)c3c(O)cc(O)cc31)c1cc(O)cc(O)c1C2=O` (stereo not drawn) [Emodin Bianthrone (mixed), emodin bianthrone], for which the “Percent Inhibition of Plaque Numbers (Compared to Virus Controls)” value (shortened to “Percent Inhibition of Plaque Numbers”) in series [1] (0.01 μg/ml, Example 2) is 0%; in series [1] (0.032 μg/ml, Example 2), 0%; in series [1] (0.1 μg/ml, Example 2), 0%; in series [1] (0.32 μg/ml, Example 2), 0%; in series [1] (1.0 μg/ml, Example 2), 100%; in series [1] (3.2 μg/ml, Example 2) it was “toxic”. In addition, in series [1] (setting [5]), the “Percent Inhibition of Plaque Numbers” value is “toxic”. Also, in series [1], the “Activity in initial screening against HCMV in vitro” value is “active”. For the same compound, the “Activity against HCMV” value in series [1] (setting [6]) is given as “show activity; also recorded: good biological activity”. For the same compound, in series [2], the “Activity against DHPG resistant HCMV strain” value is given as “retain essentially the same activity”. The “Virucidal activity against HCMV” value in the series on HCMV, strain AD-169 is listed as “negligible virucidal activity”. For the same compound, the Plaque reduction in series [3] (4 hour exposure to the cells) is ~60%. Further, the “Exposure time at which complete inhibition of plaques is seen” value in series [3] (concentration chosen to cause 100% plaque reduction on full exposure) was found to be 6 h. Besides, the Antiviral effect entry in series [3] (only 2 hours of exposure) is “no effect”. In addition, the CD50 in the series with MRC-5 cells (Example 2, cells exposed 6 or more days) came to 1.1 µg/mL; with MRC-5 cells (setting [7]) it was 1.8 µg/mL; with MRC-5 cells (setting [8]), 1.1 µg/mL; in the series on MRC-5 cells (setting [9]), 1.8 µg/mL.

As to `Cc1cc(O)c2c(c1)C(=O)c1cc(O)cc(O)c1C2=O` [Emodin, emodin], the “Number of Plaques” value in series [1] (setting [10]) stood at 79; in series [1] (setting [11]), 72; in series [1] (setting [12]), 78; in series [1] (setting [13]), 22; in series [1] (setting [14]) it was 0; in series [1] (setting [15]), 0. Further, in series [1] (setting [5]), the “Percent Inhibition of Plaque Numbers” value is recorded as “toxic”. Moreover, the inhibition at 0.0032 µg/mL in series [1] (Example 1, DMSO stock) is 0%. Also, the inhibition at 0.01 µg/mL in series [1] (setting [16]) and in series [2] was 0% throughout. Besides, the inhibition at 0.032 µg/mL in series [1] (setting [16]) and in series [2] was 0% throughout. For the same compound, the inhibition at 0.1 µg/mL in series [1] (setting [17]) came out at 9%; in series [1] (setting [16]), 0%; in series [2], 0%. The values for the inhibition at 0.32 µg/mL in series [1] (setting [17]), in series [1] (setting [16]) and in series [2] were 1%, 0% and 0%, respectively. In addition, the inhibition at 1 µg/mL came to 72% in series [1] (setting [17]), 39% in series [1] (setting [16]) and 46% in series [2]. Further, the inhibition at 3.2 µg/mL turned out to be 100% in series [1] (setting [18]); 100% in series [1] (Human betaherpesvirus 5, AD169, MRC5, 3.2 μg/ml, Example 2, read-out: Percent Inhibition of Plaque Numbers (Compared to Virus Controls)); 100% in series [2]. In addition, the inhibition at 10 µg/mL in series [1] (setting [17]) is 100%. For the same compound, the “Activity against HCMV” value is “show activity” in series [1] (setting [6]) and “anti-HCMV activity” in series [1] (statement in words on the plaque reduction results, listed as emodin). Further, the “Activity against DHPG resistant HCMV strain” value in series [2] is “retain essentially the same activity”. The “Percent Inhibition Compared to Controls” value in series [2] is “toxic”. The compound further showed a CD50 in the series with MRC-5 cells (human, 4 days) of 3.4 µg/mL.

As for `Cc1cc(O)c2c(=O)c3c(O)cc(O)c4c5c(O)cc(O)c6c(=O)c7c(O)cc(C)c8c1c2c(c34)c(c78)c65` [Hypericin, hypericin], the “Number of Plaques” value in series [1] (setting [10]) stood at 72; in series [1] (setting [11]) it was 72; in series [1] (setting [12]), 53; in series [1] (setting [13]), 53; in series [1] (setting [14]), 6; in series [1] (setting [15]) it was 0. The “Number of Plaques” value was found to be 19 in series [4] (0.1 μg/ml); 22 in series [4] (0.32 μg/ml (row r14)); 25 in series [4] (setting [19]); 19 in series [4] (1.0 μg/ml); 15 in series [4] (3.2 μg/ml); 0 in series [4] (10 μg/ml). In series [1] (Example 1, DMSO stock), this compound returned an inhibition at 0.0032 µg/mL of 9%. Besides, the inhibition at 0.01 µg/mL in series [1] (setting [16]) and in series [2] was 0% throughout. The inhibition at 0.032 µg/mL in series [1] (setting [16]) and in series [2] was 0% in each case. In addition, the inhibition at 0.1 µg/mL in series [1] (setting [17]) came out at 9%; in series [1] (setting [16]), 0%; in series [2] it was 0%. For the same compound, the inhibition at 0.32 µg/mL in series [1] (setting [17]) was found to be 33%; in series [1] (setting [16]), 0%; in series [2], 18%. For the same compound, the values for the inhibition at 1 µg/mL in series [1] (setting [17]), in series [1] (setting [16]) and in series [2] were 33%, 63% and 52%, respectively. Besides, the inhibition at 3.2 µg/mL in series [1] (setting [18]) turned out to be 92%; in series [2], 93%. The inhibition at 10 µg/mL amounted to 100% in series [1] (setting [17]) and 98% in series [2]. For the same compound, in series [1], the “Activity in initial screening against HCMV in vitro” value is “active”. For the same compound, the “% Reduction” value in series [4] (0.1 μg/ml) is listed as 0%; in series [4] (0.32 μg/ml (row r14)) it was 0%; in series [4] (setting [19]) it was 0%; in series [4] (1.0 μg/ml), 0%; in series [4] (3.2 μg/ml) it was 0%; in series [4] (10 μg/ml), 100%. Further, the CD50 entry in the series on MRC-5 cells (Example 1, DMSO stock) was “≈10 μg/ml”; in the series on MRC-5 cells (setting [7]) it was “˜10 μg/ml”; in the series with 3T3 cells, >10 µg/mL.

On to `O=C1c2ccc(O)c(O)c2C(=O)c2c(O)ccc(O)c21` [Quinalizarin, quinalizarin], for which the “Activity against HCMV” value in series [1] is listed as “definitely active; also recorded: show activity”. The inhibition at 3.2 µg/mL in series [1] (setting [20]) was 100%. Further, in series [2], the inhibition at 10 µg/mL stood at 98%, the inhibition at 0.01 µg/mL stood at 21%, the inhibition at 0.032 µg/mL is 44% and the inhibition at 0.1 µg/mL came to 20%. In addition, in series [2], the inhibition at 0.32 µg/mL came out at 0%, the inhibition at 1 µg/mL worked out at 42% and the inhibition at 3.2 µg/mL was determined as 88%. For the same compound, the CD50 in the series with MRC-5 cells (human, 4 days) was >10 µg/mL.

For `O=C(O)c1cc(O)c2c(c1)C(=O)c1cccc(O)c1C2=O` [Rhein, rhein], the inhibition at 3.2 µg/mL in series [1] (setting [20]) amounted to 100%. Besides, in series [2], the inhibition at 10 µg/mL amounted to 100%, the inhibition at 0.01 µg/mL worked out at 0%, the inhibition at 0.032 µg/mL came to 0% and the inhibition at 0.1 µg/mL is 38%. Moreover, in series [2], the inhibition at 0.32 µg/mL amounted to 0%, the inhibition at 1 µg/mL was found to be 49% and the inhibition at 3.2 µg/mL came to 100%. For the same compound, the CD50 in the series on MRC-5 cells (setting [7]) was >10 µg/mL. The CD50 with MRC-5 cells (Example 5) came out at 3.4 µg/mL. The CD50 with MRC-5 cells (Example 7) came to 2.9 µg/mL. Moreover, in the series with MRC-5 cells (setting [8]), the CD50 was 3.4 µg/mL and 2.9 µg/mL. The CD50 with MRC-5 cells (setting [9]) is >10 µg/mL.

The values above are taken from patent publication US6686393B1, “Pharmaceutical compositions having antiviral activity against human cytomegalovirus” (Murdock International Corporation, priority 1990, dated 2004).
